From patent publication US20160340633A1, “PLURIPOTENT STEM CELL EXPANSION AND PASSAGE USING A ROCKING PLATFORM BIOREACTOR” (General Electric Company, priority 2015, published 2016) come the findings set out here.

This assay deals with CT2 human embryonic stem cells. In words: Expansion of slicer-passaged pluripotent stem cell aggregates cultured with or without Y27632 ROCK inhibitor. The assay is classed as cell-based. The procedure: In one example, aggregate formation and cell expansion was measured after passage with Accutase™ or with the square grid or hexagon grid slicer. After passaging, CT2 human embryonic stem cells were seeded in 6 well plates in 2 ml mTeSR1 at either 4×10̂5 cells per mL or 1.5×10̂6 cells per mL, with or without 10 uM Y27632 ROCK inhibitor. The plates were maintained on a Boekel Scientific Rocker II 260350 rocker platform in a standard cell culture incubator at 37 degrees C., 5% CO2, with culture conditions of 20 rocks per minute at a 15 degree rock angle. Aggregates formed from the accutased cells after overnight culture. Each day, the spent mTeSR1 was completely removed and replaced with fresh mTeSR1 without Y27632 ROCK inhibitor. On day 4, the aggregates were recovered, dissociated with Accutase™ and enumerated using a Nucleocounter NC200. […]
Aggregates were passed across the slicer in a flow stream consisting of 100 mL to 1 L volumes. […] The cell aggregate concentration used to pass through the slicer was determined to influence the recovery of sliced cell aggregates at high viability. […] It was determined that slicing of cell aggregate concentrations below about 3×10̂6 cells per mL produced higher viability samples with higher recovery than cell concentrations greater than about 3×10̂6 cells per mL. […]

In the case of `C[C@@H](N)[C@H]1CC[C@H](C(=O)Nc2ccncc2)CC1` [Y27632 ROCK inhibitor, Y-27632], the “expansion rates of slicer passaged aggregates cultured with or without Y27632 ROCK inhibitor” value (10 uM at seeding, 4×10^5 or 1.5×10^6 cells per mL, 6 well plates, rocking, counted day 4, square or hexagon grid slicer) is on record as “similar”. For the same compound, the “requirement of Y27632 ROCK inhibitor for expansion of sliced pluripotent stem cell aggregates” value (sliced aggregates in mTeSR1, optionally 1 to 10 uM, unlike enzymatically passaged aggregates) is listed as “not required”.
